Source: US4341893A, “Quinazoline derivatives” (Synthelabo, priority 1976, dated 1982)

Legend:
[1] = tested on: spontaneously hypertensive male rats (Okamoto strain); test: Anti-hypertensive effect in spontaneously hypertensive rats, systolic pressure; format: in vivo; settings: 10 mg/kg perorally, spontaneously hypertensive rat
Protocol: Experiments were carried out on spontaneously hypertensive male rats (Okamoto strain), which were at least 14 weeks old. The systolic pressure was measured according to the technique described by Gerold and Tschirky (Arzneim.-Forsch. 1968, 18, 1285). The compounds were administered orally at a dose of 1 or 10 mg/kg.
Table II collects together the results obtained which are expressed in percent variation of the initial pressure, 2 hours, 4 hours and 24 hours after administration of the compound (I).

LD 50 rat (Table II) = settings: in vivo

Structure (SMILES) | % variation of the pressure after 2 hours [1] | % variation of the pressure after 4 hours [1] | % variation of the pressure after 24 hours [1] | LD50 (LD 50 rat (Table II); ip / intraperitoneally) | LD50 (LD 50 rat (Table II); po, perorally)
COc1cc2nc(N3CCC(C(=O)c4ccc5c(c4)OCO5)CC3)nc(N)c2cc1OC [Compound 1, 4-Amino-6,7-dimethoxy-2-[4-(3,4-methylenedioxybenzoyl)piperidino]-quinazoline] | -30% | -32% | -37% | > 500 mg/kg | –
COc1cc2nc(N(C)CCCN(C)C(=O)c3ccccc3)nc(N)c2cc1OC [Compound 10, N1-(4-amino-6,7-dimethoxy-quinazolinyl-2)-N2-benzoyl-N1 N2-dimethyl-propylenediamine] | -23% | -15% | -4% | – | > 500 mg/kg
COc1cccc(C(=O)C2CCN(c3nc(N)c4cc(OC)c(OC)cc4n3)CC2)c1 [Compound 3, 4-Amino-6,7-dimethoxy-2-[4-(3-methoxybenzoyl)-piperidino]-quinazoline] | -32% | -23% | – | ~500 mg/kg | –
COc1cc2nc(N3CCC(C(=O)c4ccccc4)CC3)nc(N)c2cc1OC [Compound 2] | -43% | -32% | -40% | > 500 mg/kg | –
COc1cc2nc(N3CCC(C(=O)c4nnc(SC)o4)CC3)nc(N)c2cc1OC [Compound 7, 4-amino-6,7-dimethoxy-2-[4-(5-methylthio-1,3,4-oxadiazole-2-carbonyl)-piperidino]-quinazoline] | -24% | -20% | -2% | – | > 500 mg/kg
COc1cc2nc(NCCCN(C)C(=O)c3ccccc3)nc(N)c2cc1OC [Compound 12, N1-(4-amino-6,7-dimethoxy-quinazolinyl-2)-N2-benzoyl-N2-methyl-propylenediamine] | -31% | -23% | – | ~400 mg/kg | –
COc1cc2nc(N3CCC(C(=O)c4cccs4)CC3)nc(N)c2cc1OC [Compound 6] | -27% | -22% | -2% | > 500 mg/kg | –
